Source: ChEMBL document CHEMBL1151382, “A pharmacological study of two bisbenzylisoquinoline alkaloids, thalistyline and obamegine” (J Nat Prod, 1982)
Active and inactive are the calls of the source. No cut-off for these calls is given here.

Key:
[1] = Blockade of neuromuscular transmission activity in albino Sprague-Dawley rat hemidiaphragm assessed as inhibition of electrically-stimulated phrenic nerve contraction; assay type: functional, tissue-based, Diaphragm
[2] = Antagonist activity at alpha adrenergic receptor in rabbit aortic strips assessed as decrease in of phenylephrine-induced contraction at 3 X 10^-4 M; assay type: functional, Oryctolagus cuniculus; set-up: scale not given: the % may be the effect or the level left
Rattus norvegicus = species: Rattus norvegicus; test: Blockade of neuromuscular transmission activity in albino Sprague-Dawley rat hemidiaphragm assessed as inhibition of electrically-stimulated phrenic nerve contraction at 1 to 30 X 10^-6 M; assay type: functional, tissue-based; conditions: Diaphragm
Canis familiaris [3] = test: Toxicity in iv dosed dog assessed as inhibition of respiration; assay type: organism-based, Canis lupus familiaris; conditions: in vivo
Oryctolagus cuniculus = species: Oryctolagus cuniculus; test: Antagonist activity at alpha adrenergic receptor in rabbit aortic strips assessed as decrease in of phenylephrine-induced contraction at 10^-4 M; assay type: functional
Canis familiaris [4] = test: Toxicity in dog at 0.5 to 4 mg/kg, iv; assay type: organism-based, Canis lupus familiaris; set-up: dose 0.5-4 mg/kg, route intravenous; conditions: in vivo
Canis familiaris [5] = test: Cardiovascular effect in anesthetized normotensive iv dosed dog assessed as decrease in heart rate; assay type: functional, Canis lupus familiaris
Canis familiaris [6] = test: Cardiovascular effect in anesthetized normotensive dog assessed as reduction in mean arterial pressure at 2 mg/kg, iv dosed twice with second dose being administered 2.5 hrs interval after the first dose; assay type: functional, Canis lupus familiaris, Artery
[7] = Antagonist activity at alpha adrenergic receptor in rabbit aortic strips assessed as inhibition of phenylephrine-induced contraction; assay type: functional, Oryctolagus cuniculus
Canis familiaris [8] = test: Cardiovascular effect in anesthetized normotensive iv dosed dog assessed as decrease in mean arterial pressure; assay type: functional, organism-based; conditions: Canis lupus familiaris; Artery
Canis familiaris [9] = test: Cardiovascular effect in anesthetized normotensive dog assessed as decrease in mean arterial pressure at 2 mg/kg, iv upto 22 mins; assay type: functional, Canis lupus familiaris, Artery
Canis familiaris [10] = test: Cardiovascular effect in anesthetized normotensive dog assessed as decrease in mean arterial pressure at 0.1 to 0.4 mg/kg, iv; assay type: functional, organism-based; conditions: Canis lupus familiaris, Artery
[11] = Blockade of neuromuscular transmission activity in albino Sprague-Dawley rat hemidiaphragm assessed as inhibition of electrically-stimulated phrenic nerve contraction at 10^-5 M relative to control; assay type: functional, Diaphragm; set-up: scale not given: the % may be the effect or the level left
Canis familiaris [12] = test: Toxicity in dog assessed as inhibition of respiration at > 0.4 mg/kg, iv; assay type: organism-based, Canis lupus familiaris; set-up: dose 0.4 mg/kg, route intravenous; conditions: in vivo
Canis familiaris [13] = test: Toxicity in dog at > 0.4 mg/kg, iv; assay type: organism-based, Canis lupus familiaris; set-up: dose 0.4 mg/kg, route intravenous; conditions: in vivo
[14] = Protection of albino Sprague-Dawley rat hemidiaphragm from alpha-bungarotoxin blockade assessed as recovery of nerve-stimulated muscle contraction at 3 X 10^-5 M; assay type: functional, Muscle tissue
Canis familiaris [15] = test: Cardiovascular effect in anesthetized normotensive dog assessed as fall in heart rate at 0.1 to 0.4 mg/kg, iv; assay type: functional, Canis lupus familiaris; conditions: dose mg/kg 0.1-0.4
[16] = Blockade of neuromuscular transmission activity in albino Sprague-Dawley rat hemidiaphragm assessed as inhibition of electrically-stimulated phrenic nerve contraction at 10^-5 M relative to control in presence of Eserine; assay type: functional, Diaphragm; set-up: scale not given: the % may be the effect or the level left
Canis familiaris [17] = test: Cardiovascular effect in anesthetized normotensive dog assessed as rise in heart rate at 0.1 mg/kg, iv; assay type: functional, Canis lupus familiaris

Activity (Oryctolagus cuniculus) | Structure (SMILES) | IC50 [1] [nM] | Activity [2] [%] | Activity (Rattus norvegicus) | Activity (Canis familiaris [3]) | Activity (Canis familiaris [4]) | Activity (Canis familiaris [5]) [bpm] | Activity (Canis familiaris [6]) [mmHg] | pKb [7] | Activity (Canis familiaris [8]) | Activity (Canis familiaris [9]) [mmHg] | Activity (Canis familiaris [10]) | Activity [11] [%] | Activity (Canis familiaris [12]) | Activity (Canis familiaris [13]) | Activity [14] [%] | Activity (Canis familiaris [15]) [bpm] | Kb ([7]; Oryctolagus cuniculus, read-out: pA2 (converted)) [nM] | Activity [16] [%] | Activity (Canis familiaris [17]) [bpm]
– | COc1cc2c3cc1Oc1cc(ccc1O)C[C@@H]1c4c(cc(OC)c(O)c4Oc4ccc(cc4)C[C@@H]3N(C)CC2)CC[N+]1(C)C | 1420 | – | – | – | – | – | – | – | – | – | – | – | – | – | – | – | – | – | –
Active | COc1cc2c3cc1Oc1c(O)c(OC)cc4c1[C@@H](Cc1ccc(O)c(c1)Oc1ccc(cc1)C[C@@H]3N(C)CC2)N(C)CC4 [OBAMEGINE] | – | 30 | inactive | Non-toxic | Non-toxic | 20 | 11 | 5.3 | Dose-dependent effect | 61 | – | – | – | – | – | – | – | – | –
– | COc1ccc(C[C@H]2c3cc(OC)c(OC)c(OC)c3CC[N+]2(C)C)cc1Oc1ccc(C[C@H]2c3cc(OC)c4c(c3CCN2C)OCO4)cc1.[Cl-] [THALISTYLINE] | 4980 | – | – | – | – | – | – | – | – | – | Active | 24.7 | Toxic | Toxic | 65.8 | 20 | 468 | 63.8 | 20
